Results taken from the supplement of paper PMC10307832.

How the values were obtained:
Assay in all cases: relative viability (nuclei count vs DMSO), 5 days (fraction); higher = more cells survive
Kobe2602 + Pictilisib = compound: C1=CC(=CC=C1NC(=S)NNC2=C(C=C(C=C2[N+](=O)[O-])C(F)(F)F)[N+](=O)[O-])F [Kobe2602] + CS(=O)(=O)N1CCN(Cc2cc3nc(-c4cccc5[nH]ncc45)nc(N4CCOCC4)c3s2)CC1 [Pictilisib] (partner 1 µM)
Summary of the method: (§1)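 Medians of duplicate plates are given as relative viability. That measure is the nuclei count in treated wells divided by the count in vehicle wells. Counts were taken on 4× images of lung cancer cell lines in 1536-well plates, 5 days after pin-tool dosing the day after seeding with one drug alone or a fixed anchor-drug dose plus five library-drug doses (not always all listed) in √10 steps.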

Kobe2602 + Decitabine = compound: C1=CC(=CC=C1NC(=S)NNC2=C(C=C(C=C2[N+](=O)[O-])C(F)(F)F)[N+](=O)[O-])F [Kobe2602] + Nc1ncn([C@H]2C[C@H](O)[C@@H](CO)O2)c(=O)n1 [Decitabine] (partner 2 µM)
Summary of the method: as §1

[1] = compound: COc1cc2nccc(Oc3ccc(NC(=O)C4(C(=O)Nc5ccc(F)cc5)CC4)cc3)c2cc1OC [Cabozantinib] + CS(=O)(=O)N1CCN(Cc2cc3nc(-c4cccc5[nH]ncc45)nc(N4CCOCC4)c3s2)CC1 [Pictilisib] (partner 1 µM)
Summary of the method: as §1

Zosuquidar + Pictilisib = compound: O[C@@H](COc1cccc2ncccc12)CN1CCN([C@@H]2c3ccccc3[C@@H]3[C@H](c4ccccc42)C3(F)F)CC1 [Zosuquidar] + CS(=O)(=O)N1CCN(Cc2cc3nc(-c4cccc5[nH]ncc45)nc(N4CCOCC4)c3s2)CC1 [Pictilisib] (partner 1 µM)
Summary of the method: as §1

Cell Line	relative viability (Kobe2602 + Pictilisib; first compound 0.2 µM)	relative viability (Kobe2602 + Pictilisib; first compound 0.6325 µM)	relative viability (Kobe2602 + Pictilisib; first compound 2 µM)	relative viability (Kobe2602 + Pictilisib; first compound 6.325 µM)	relative viability (Kobe2602 + Pictilisib; first compound 20 µM)	relative viability (Kobe2602 + Decitabine; first compound 0.2 µM)	relative viability (Kobe2602 + Decitabine; first compound 0.6325 µM)	relative viability (Kobe2602 + Decitabine; first compound 2 µM)	relative viability (Kobe2602 + Decitabine; first compound 6.325 µM)	relative viability (Kobe2602 + Decitabine; first compound 20 µM)	relative viability ([1]; first compound 0.02 µM)	relative viability ([1]; first compound 0.06325 µM)	relative viability ([1]; first compound 0.2 µM)	relative viability ([1]; first compound 0.6325 µM)	relative viability ([1]; first compound 2 µM)	relative viability (Zosuquidar + Pictilisib; first compound 0.01 µM)	relative viability (Zosuquidar + Pictilisib; first compound 0.03162 µM)	relative viability (Zosuquidar + Pictilisib; first compound 0.1 µM)	relative viability (Zosuquidar + Pictilisib; first compound 0.3162 µM)	relative viability (Zosuquidar + Pictilisib; first compound 1 µM)
NCI-H2085	0.484	0.448	0.483	0.466	0.489	0.549	0.549	0.568	0.552	0.616	0.468	0.456	0.443	0.465	0.344	0.446	0.543	0.441	0.474	0.478
RERF-LC-KJ	0.589	0.643	0.512	0.506	0.493	0.648	0.69	0.576	0.591	0.37	0.501	0.646	0.578	0.567	0.485	0.467	0.586	0.536	0.679	0.57
NCI-H1355	0.358	0.526	0.451	0.429	0.42	0.312	0.368	0.301	0.346	0.358	0.49	0.442	0.453	0.432	0.526	0.427	0.375	0.354	0.546	0.476
NCI-H1650	0.554	0.806	0.635	0.658	0.597	0.42	0.473	0.381	0.338	0.366	0.515	0.709	0.606	0.536	0.532	0.555	0.688	0.531	0.686	0.586
PC-14	0.63	0.674	0.592	0.637	0.745	0.224	0.201	0.235	0.234	0.247	0.722	0.761	–	0.76	0.689	0.573	0.831	0.801	0.696	0.816
NCI-H1755	0.445	0.476	0.421	0.439	0.435	0.711	0.692	0.738	0.698	0.764	0.445	0.534	0.383	0.358	0.309	0.415	0.452	0.318	0.497	0.484
NCI-H1651	0.691	0.69	0.636	0.537	0.537	0.588	0.481	0.71	0.578	0.936	0.548	0.62	0.513	0.547	0.468	0.589	0.661	0.559	0.668	0.615
NCI-H661	0.461	0.368	0.419	0.353	0.52	0.564	0.598	0.589	0.561	0.612	0.301	0.476	0.391	0.394	0.331	0.351	0.419	–	0.404	0.361
NCI-H358	0.301	0.324	0.332	0.39	0.318	0.222	0.219	0.225	0.177	0.244	0.318	0.35	0.386	0.387	0.373	0.339	0.349	0.218	0.366	0.304
NCI-H1395	0.612	0.664	0.617	0.65	0.816	0.764	0.752	0.712	0.687	0.68	0.657	0.644	0.609	0.675	0.689	0.574	0.556	0.52	0.683	0.809
HCC-15	0.816	0.848	0.738	0.78	0.707	0.662	0.649	0.537	0.627	0.62	0.785	0.762	0.69	0.719	0.799	0.686	0.778	0.753	0.801	0.854
PC-3 [JPC-3]	0.873	0.74	0.795	0.781	0.671	0.856	0.895	0.84	0.754	0.787	0.723	0.926	–	0.806	0.774	0.768	0.539	0.664	0.677	0.738
HOP-62	0.72	1.09	0.717	0.783	0.782	0.236	0.203	0.201	0.251	0.243	0.959	0.707	1.08	0.57	0.683	0.684	0.86	0.579	0.81	0.831
NCI-H460	0.392	0.373	0.463	0.365	0.403	–	0.486	0.525	0.472	0.454	0.232	0.44	0.379	0.23	0.439	0.326	0.393	0.27	0.437	0.393
NCI-H1793	0.387	0.381	0.32	0.346	0.339	0.482	0.485	0.656	0.664	0.472	0.416	0.325	0.296	0.27	0.293	0.483	0.383	–	0.357	0.297
NCI-H727	0.314	0.356	0.473	0.331	0.385	0.854	0.765	0.97	–	1.13	0.228	0.493	0.302	0.357	0.36	0.36	0.555	0.228	0.391	0.506

Cell Line	relative viability (Kobe2602 + Pictilisib; first compound 0.2 µM)	relative viability (Kobe2602 + Pictilisib; first compound 0.6325 µM)	relative viability (Kobe2602 + Pictilisib; first compound 2 µM)	relative viability (Kobe2602 + Pictilisib; first compound 6.325 µM)	relative viability (Kobe2602 + Pictilisib; first compound 20 µM)	relative viability (Kobe2602 + Decitabine; first compound 0.2 µM)	relative viability (Kobe2602 + Decitabine; first compound 0.6325 µM)	relative viability (Kobe2602 + Decitabine; first compound 2 µM)	relative viability (Kobe2602 + Decitabine; first compound 6.325 µM)	relative viability (Kobe2602 + Decitabine; first compound 20 µM)	relative viability ([1]; first compound 0.02 µM)	relative viability ([1]; first compound 0.06325 µM)	relative viability ([1]; first compound 0.2 µM)	relative viability ([1]; first compound 0.6325 µM)	relative viability ([1]; first compound 2 µM)	relative viability (Zosuquidar + Pictilisib; first compound 0.01 µM)	relative viability (Zosuquidar + Pictilisib; first compound 0.03162 µM)	relative viability (Zosuquidar + Pictilisib; first compound 0.1 µM)	relative viability (Zosuquidar + Pictilisib; first compound 0.3162 µM)	relative viability (Zosuquidar + Pictilisib; first compound 1 µM)
NCI-H838	0.393	0.489	0.426	0.422	0.418	0.474	0.478	0.46	0.472	0.527	0.499	0.574	0.529	0.394	0.417	0.423	0.428	0.284	0.488	0.441
NCI-H1734	0.439	0.475	0.464	0.454	0.533	0.49	0.539	0.497	0.48	0.481	0.417	0.414	0.472	0.453	0.434	0.388	0.484	0.399	0.471	0.478
EKVX	0.461	0.422	0.386	0.412	0.426	0.337	0.377	0.349	0.43	0.385	0.483	0.448	0.344	0.418	0.367	0.427	0.446	0.346	0.455	0.444
NCI-H647	0.432	0.483	0.455	0.425	0.567	0.438	0.399	0.332	0.4	0.399	0.434	0.571	0.481	0.362	0.398	0.493	0.316	0.463	0.4	0.466
LOU-NH91	0.553	0.49	0.468	0.528	0.566	0.794	0.895	0.801	0.809	0.826	0.494	0.541	0.476	0.485	0.513	0.536	0.572	0.482	0.543	0.516
COR-L23	0.766	0.695	0.811	0.837	0.832	0.455	0.462	0.409	0.468	0.515	0.487	0.831	0.789	0.74	0.691	0.76	0.658	0.679	1.01	0.889
NCI-H1437	0.412	0.501	0.471	0.424	0.363	0.578	0.495	0.611	0.559	0.491	0.382	0.474	0.486	0.471	0.429	0.464	0.411	0.453	0.628	0.506
EPLC-272H	0.321	0.458	0.294	0.345	0.374	0.341	0.381	0.411	0.319	0.395	0.192	0.262	0.323	0.356	0.279	0.308	0.344	0.311	0.272	0.35
ChaGo-K-1	0.761	1.05	0.625	0.725	0.732	0.538	0.524	0.512	0.469	0.481	0.533	0.933	0.676	0.405	0.647	0.858	0.563	1.27	0.882	0.637
NCI-H1666	0.345	0.5	–	0.276	0.471	0.725	0.693	0.69	0.724	0.812	0.404	0.4	0.396	0.503	0.439	0.458	0.491	0.52	0.517	0.274
NCI-H441	0.46	0.495	0.538	0.483	0.409	0.224	0.258	0.224	0.232	0.27	0.459	0.512	0.49	0.581	0.404	0.449	0.435	0.512	–	0.595
HCC-44	0.63	0.623	0.684	1.54	0.662	0.993	0.894	0.897	0.896	0.91	0.487	0.581	0.6	0.571	0.662	0.615	0.57	0.603	0.742	0.815
NCI-H23	0.47	0.581	0.491	0.516	0.497	0.2	0.345	0.316	0.304	0.39	–	0.476	0.402	0.358	0.427	0.479	0.525	0.393	0.574	0.496
SW 1573	0.491	0.457	0.365	0.556	0.486	0.483	0.614	0.453	0.493	0.318	0.483	0.573	0.543	0.411	0.449	0.425	0.465	0.446	0.626	0.597
LU99A	0.317	0.365	0.312	0.383	0.359	0.913	1.01	0.746	0.955	0.859	0.248	0.335	0.299	0.33	0.346	0.252	0.275	0.354	0.327	0.4
SK-LU-1	0.613	0.727	0.624	0.578	0.513	0.672	0.702	0.631	0.581	0.64	–	0.857	0.519	0.481	0.529	0.552	0.642	0.567	0.689	0.543
